Laboratory results as given in publication PMC10525516, “Novel NADPH Oxidase-2 Inhibitors as Potential Anti-Inflammatory and Neuroprotective Agents” (Antioxidants, 2023).

Key:
THP-1 cells = assay: qRT-PCR mRNA expression of Nox2 subunits and inflammatory mediators in PMA-treated THP-1 cells; assay type: cell-based, human; conditions: 3 µM, 48 h with PMA 100 ng/mL
Method: Human promyelocytic leukemia HL60 cells (Sigma-Aldrich) were grown in RPMI 1640 medium (Gibco, 11875-093, Billings, MT, USA) supplemented with 10% FBS (Omega Scientific (Tarzana, CA, USA)), 100 units/mL penicillin, and 100 µg/mL streptomycin, and were incubated at 37 °C and 5% carbon dioxide (CO2). For differentiation to neutrophil-like cells, HL60 cells were pelleted and resuspended in fresh media containing 1 µM of all trans-retinoic acid and incubated for four to five days. Nox2 activation was achieved by treating differentiated HL60 (dHL60) cells with 1 µM PMA [24]. Human leukemia monocytic cells, THP-1, were grown in RPMI 1640 medium + GlutaMAX^TM (Gibco, 61870-036) and supplemented with 10% FBS, 10 mM HEPES, and 1 mM sodium pyruvate and incubated at 37 °C in 5% CO2 environment. To induce differentiation into macrophages, THP-1 cells were treated with PMA (100 ng/mL) for 48 h. To test the efficacy of Nox2 inhibitors, treatment was performed with or without the inhibitor, along with PMA [35].
mRNA expression analysis was performed as previously described. Briefly, THP-1 cells were treated with PMA (100 ng/mL) with or without the Nox2 inhibitor TG15-132 (3.0 µM) for 48 h. RNA extraction was done using the Quick-RNA miniprep kit (cat. no. R1055, Zymo Research, Irvine, CA, USA) and followed by cDNA synthesis using the qScript cDNA superMix kit (cat. no. 84035, Quantabio, Beverly, MA, USA). Quantitative real-time PCR was performed using specific primers designed to amplify target genes (Table 2). Data obtained were analyzed and converted into fold changes in expression with respect to vehicle-treated cells.

dHL60 cells = assay: Cell Titer Glo 2.0 cytotoxicity (ATP) assay in PMA-stimulated dHL60 cells; assay type: cell-based, human
Method: The cytotoxicity of the inhibitors was tested by measuring the amount of ATP in the wells containing PMA-stimulated dHL60 cells and the candidate inhibitors. Cells were prepared as described for the plate reader-based measurements for H2O2, except that the cells were maintained with the inhibitors in a CO2-free incubator at 37 °C for 2.5 h to mirror the conditions during the fluorescence-based monitoring of H2O2 described above. After incubation, cells (100 µL/well) were transferred to white 96-well plates (Greiner, Kremsmünster, Austria), and the total cellular ATP amount was determined using the Cell Titer Glo 2.0 (Promega) cytotoxicity assay (100 µL/well) by measuring the luminescence intensity using a Beckman Coulter DTX880 plate reader.

Nox2 = biological target: T1, Nox2 (Homo sapiens, UniProt P04839); assay: Seahorse XFe96 oxygen consumption in dHL60 cells before and after PMA; assay type: cell-based
T1 construct: endogenous in cells
T1 sequence (P04839 2-570 limits assumed): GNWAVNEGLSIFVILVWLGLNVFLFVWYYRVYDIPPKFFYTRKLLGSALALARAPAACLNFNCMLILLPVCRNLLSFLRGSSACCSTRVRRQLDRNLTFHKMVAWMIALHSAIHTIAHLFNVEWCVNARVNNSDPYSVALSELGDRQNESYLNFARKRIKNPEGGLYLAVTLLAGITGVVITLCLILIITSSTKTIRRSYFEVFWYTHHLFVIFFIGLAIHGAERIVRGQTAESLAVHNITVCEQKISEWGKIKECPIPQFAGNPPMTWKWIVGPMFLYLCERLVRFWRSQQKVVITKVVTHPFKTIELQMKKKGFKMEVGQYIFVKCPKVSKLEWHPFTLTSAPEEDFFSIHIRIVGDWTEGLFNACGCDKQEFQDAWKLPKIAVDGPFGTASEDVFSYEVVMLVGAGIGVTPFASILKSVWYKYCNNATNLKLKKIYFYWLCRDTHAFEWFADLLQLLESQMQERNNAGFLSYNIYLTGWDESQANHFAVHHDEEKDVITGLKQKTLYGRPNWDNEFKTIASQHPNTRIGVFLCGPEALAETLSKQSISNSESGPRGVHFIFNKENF
T1 sequence (P13498 2-195 partner limits assumed): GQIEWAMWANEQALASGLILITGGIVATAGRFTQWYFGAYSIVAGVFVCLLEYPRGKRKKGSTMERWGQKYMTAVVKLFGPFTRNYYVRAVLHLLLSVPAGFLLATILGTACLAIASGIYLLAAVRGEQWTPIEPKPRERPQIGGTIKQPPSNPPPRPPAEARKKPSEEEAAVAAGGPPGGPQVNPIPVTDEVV
Method: Oxygen consumption in dHL60 cells was monitored before and after the sequential addition of the candidate Nox inhibitors and PMA using a Seahorse XFe96 extracellular flux analyzer (Agilent Technologies, Santa Clara, CA, USA). The cell suspension was prepared in phenol red-free RPMI medium (without bicarbonate) and aliquoted (80 µL/well) into a 96-well plate to obtain a final cell number of 2 × 10^4 cells/well. Cells were spun down and an additional amount of RPMI medium (100 µL/well) was added gently so as not to disturb the cells at the bottom of the wells. The solutions for injections were prepared 10× concentrated, loaded into the injection ports of the Seahorse XFe96 cartridge, and the volumes injected were 20 µL and 22.2 µL for the compounds tested and PMA, respectively. The oxygen consumption rates were monitored for 30 min before injection (baseline respiration rate), 60 min after injection of different concentrations of the candidate Nox inhibitors, and 2 h after injection of PMA (final concentration: 1 µM). Increases in OCR values after PMA injection were used as a measure of Nox2 activity.

- basal respiration (OCR) (Nox2; 1 h after compound injection, before PMA, concentrations that inhibit PMA-induced OCR): no inhibition of basal respiration
SMILES: CN(C)CCCn1c(SCCc2c[nH]c3ccccc23)nc2ccc(F)cc2c1=O [TG15-132]
- mRNA expression vs PMA-treated cells, additional experiment (Figure 7B) (THP-1 cells): statistically significant reduction in the expression of p47^phox, IL-1β, and TNF
- mRNA expression vs cells treated with PMA alone (Figure 7A) (THP-1 cells): reduced the expression of gp91^phox, p47^phox, p67^phox, IL-1β, and TNF
- IC50 (dHL60 cells; Homo sapiens, Cell Titer Glo 2.0, PMA-stimulated dHL60 cells, 2.5 h with inhibitor, unit not printed in Table 3, taken from text, read-out: IC50, Viability Assay): 34.5 ± 6 µM
- cell viability at concentrations showing Nox2 inhibitory potency (dHL60 cells; dHL60 cells, Figure 3D,E): no decrease in cell viability
- PMA-induced OCR (Nox2; PMA 1 µM after 1 h compound): significant inhibition of PMA-induced OCR
